Data set [1] is described as follows: Controlled release of quisinostat from dialysis cassette into PBS. Type of data set: physicochemical. The following applies: 37° C., 3.5k MWCO dialysis cassette. The protocol:
Controlled Release Quisinostat release from nanoparticles was determined using a protocol adapted from Wang et al.. Nanoparticles were diluted to 20 mg/ml in PBS (pH 7) and 400 μl was transferred to a 3.5 k MWCO Slide-A-Lyzer Dialysis cassette (Thermo Fisher Scientific, Waltham, MA USA) in triplicate. Each cassette was immersed in 2 l PBS (pH 7, replaced at each time point) at 37° C. with gentle stirring (100 rpm). At each time point, 30 μl nanoparticles was removed from the cassette and dissolved in 150 μl DMSO. 60 μl dissolved nanoparticles was added in triplicate to a clear, flat bottom, 96-well plate, and the amount of drug remaining was quantified by absorbance as described above. A free quisinostat control at the equivalent concentration was included to measure quisinostat movement across the membrane using the same protocol.

Data set [2] has as its system GL261 murine glioma cells. The data set can be described thus: In vitro nanoparticle efficacy, CellTiter-Glo cell viability. The data set is classed as cell-based. To be noted: Mus musculus, 72 hours, read-out: IC50, growth inhibition. On the procedure: Cell Culture GL261-LucNeo cells were generated by retroviral transduction of parent GL261 cells. The LucNeo construct (obtained from AndrewKung laboratory, Dana-Farber Cancer Institute) is described in Rubin et al.. Cells were maintained under normal adherent culture conditions supplemented with G-418 as a selection pressure. Cells were grown in T25 flasks in DMEM containing glucose, L-glutamine and 10% FBS at 37° C. and 5% CO2. 0.25% trypsin-EDTA was applied to collect cells, and a Cellometer mini (Nexcelom Bioscience, Lawrence, MA USA) was used to count cells prior to all in vitro and in vivo experiments.
In vitro Nanoparticle Efficacy GL261 cells were seeded in 96-well flat, white walled, clear bottom plates at a density of 3 k cells/well in 100 μl media and allowed to attach for 4 hours prior to adding treatments. Each plate was treated with 10 μl/well of 19 serial dilutions (1:2) ranging from 10 to 0 μM in PBS of either free drug or nanoparticles. After 72 hours, cell viability was assessed using CellTiter-Glo, and an IC50 value was calculated using GraphPad Prism (San Diego, CA USA) by a nonlinear fit of the log (inhibitor) vs. response function.
(In ATP-based viability assays light output follows the ATP content of the culture.)

Data set [3] relates to orthotopic GL261-LucNeo tumors. Description: Treatment efficacy in mice bearing orthotopic GL261 tumors (bioluminescence tumor growth, survival). Type of data set: in vivo, C57BL/6 albino mice. To be noted: free drug study: 10 mg/kg IP, days 11, 12, 18, 19, n=5. On the procedure: Tumor induction Orthotopic GL261-LucNeo tumors were induced in C57BL/6 albino mice (Harlan Laboratories, Indianass, IN, USA) as previously reported. Briefly, mice were anesthetized with an intraperitoneal injection of ketamine/xylazine (100/10 mg/kg) and mounted in a stereotaxic frame (Kopf Instruments, Tujunga, CA, USA) on top of an infrared heating pad to maintain animal temperature. The animal's head was shaved and sterilized with three alternating passes each of betadine and ethanol. A 1 cm incision was made over midline, and a burr hole was drilled 2 mm lateral, 0.1 mm posterior of bregma. A hamiltion syringe (29 gauge needle) containing 75 k GL261-LucNeo cells in 2 μl DMEM was inserted into the hole to a depth of 2.8 mm and the cells were injected over 2 min. The needle was left in place for 1 min to reduce backflow before the wound was closed with staples. All animals received a subcutaneous (SQ) injection of Buprenorphine SR prior to surgery, and ibuprofen was provided in their water ad lib for 1 week for pain. […]
Tumor treatment Quisinostat-loaded nanoparticles were tested in vivo in mice bearing orthotopic GL261 tumors. […] Treatment efficacy was measured by tumor growth and median survival. Mice were monitored daily and euthanized at the sign of symptoms (lack of grooming, abnormal gait, hunched posture, etc.) or greater than 15% weight loss. […]

The conditions of data set [4]: solubilized with hydroxy-propyl-β-cyclodextrin and/or mannitol; IP or SQ injection; cited from earlier work.

As to `Cn1cc(CNCC2CCN(c3ncc(C(=O)NO)cn3)CC2)c2ccccc21` [quisinostat, Quisinostat], in data set [1], the “time to complete quisinostat release” value is at most 4 h. Also, the IC50 (as a rule, the concentration at which inhibition is half-maximal) in data set [2] turned out to be 24 nM. Moreover, the tumor doubling time in data set [3] (saline 2.4 days) is 2.4 days. Also, the median survival in data set [3] (saline 22 days) was 19 days. Further, the maximum tolerated dose in data set [4] is given as 35-70 mg/kg/week.

These data come from patent publication US12233164B2, “Drug delivery composition and method of fabrication” (DIGNITY HEALTH, priority 2017, dated 2025).
